Results: patent publication US7326689B2, “Pseudomycins useful against plant diseases” (Eli Lilly and Company, priority 2000, dated 2008)
Values joined by “and” are separate entries in the source; they are usually repeats but may differ in a detail not shown here. Identical values can stand only once.

Key:
Assay in all cases: Antifungal growth assay in potato dextrose broth, 24-well
Type in all cases: cell-based
Drechslera portulacae = details: 3x assays
Protocol: (§1) Fungi to be tested were propagated on potato dextrose agar (PDA) plates at room temperature. Stock solutions of pseudomycins and depsipeptide were suspended in dimethylsulfoxide (DMSO) (Sigma) at 5 mg/ml and stored at −20C. Serial dilutions of compounds were done the day of the experiment. All serial dilutions were made in DMSO. […] These are noted in the raw data section.
(§2) Assays were performed in 24-well cell culture clusters (Costar 3524), with 990 ul potato dextrose broth (PDB, Difco) and 10 ul of the compound to be tested in each well. Initial concentrations tested were 50-1.56 ug/ml (final concentration of pseudomycin). Actual concentrations of pseudomycins tested were 50, 25, 12.5, 6.25, 3.12 and 1.56 ug/ml. Each well was inoculated with the appropriate fungus. Unless noted, the fungal inoculum consisted of an ˜4 mm^2 piece of PDA with fungal mycelium. The exceptions were as follows. Ustilago maydis: this fungus grows much like a yeast on PDA, and cells were scraped from the PDA stock plate, resuspended in PDB and 10 ul inoculum added to each well. Monilinia sp.: this fungal mycelium grows as a very loose sheet on top of PDA and would not adhere to agar blocks. Fungal mycelium was ground with a metal rod in 500 ul PDB and 10 ul inoculum was added to each well. Mycosphaeella fijiensis, Septoria passerinii, Septoria triticii: these fungi all grow very slowly and the results were difficult to score if a small piece of agar with fungal mycelium on it was used as an inoculum. For these fungi, the mycelium was ground with a metal rod in 500 ul PDB and 10 ul inoculum was added to each well.
(§3) Wells were scored for fungal growth at two days and five days. Some slow growing fungi were scored at later days for growth because assessment was not possible at two or five days. Growth was scored by comparison to a control consisting of fungus inoculated into 990 ul potato dextrose broth and 10 ul of DMSO (Dimethylsulfoxide). An additional control consisting of fungal inoculum in PDB only was performed to ensure that the DMSO was not inhibitory to fungal growth.
(§4) For assays that were repeated, new stock solutions were made from a second shipment of pseudomycins. Note that pseudomycin B′ and depsipeptide stock solutions were remade from first shipment materials because these were not included in the second shipment. […] Actual concentrations of pseudomycins tested were 2, 1, 0.5, 0.25, 0.125 and 0.0625 ug/ml. A-PO4 and A-FB=pseudomycin A phosphate salt and free base respectively.
(§5) Table 2: Two day results—concentration indicated is lowest level of compound (ug /ml) that results is no growth. NI, no inhibition; p (partial), at least 50% inhibited; -, not determined. If number of assays was greater than one, number of assays performed on the fungus is noted in parentheses. For several slow-growing fungi, days elapsed before observation (if different than two) are noted.
(§6) Table 3: Five day results—concentration indicated is lowest level of compound (ug /ml) that results in no growth. NI, no inhibition; p (partial), at least 50% inhibited; -, not performed on the fungus is noted in parentheses. For several slow-growing fungi, days elapsed before observation (if different than five) are noted.

Geotrichim candidum = details: 3x assays
Protocol: as §1, §2, §3, §4, §5, §6

Monilinia sp. = details: 2x assays
Protocol: as §1, §2, §3, §4, §5, §6

[1] = system: Mycosphaeella fijiensis (8088/88); details: 3x assays
Protocol: as §1, §2, §3, §4, §5, §6

[2] = system: Mycosphaeella fijiensis (Sigatoka); details: 3x assays
Protocol: as §1, §2, §3, §4, §5, §6

Penicillium roqueforti = details: 3x assays
Protocol: as §1, §2, §3, §4, §5, §6

Rhizoctonia solani = details: 2x assays
Protocol: as §1, §2, §3, §4, §5, §6

Septoria passerinii = details: 3x assays
Protocol: as §1, §2, §3, §4, §5, §6

Septoria tritici = details: 3x assays
Protocol: as §1, §2, §3, §4, §5, §6

Ustilago maydis = details: 3x assays
Protocol: as §1, §2, §3, §4, §5, §6

Bipolaris sorokiniana = system: Bipolaris sorokiniana; parameters: key: NI, no inhibition; p (partial), at least 50% inhibited
Protocol: as §1, §2, §3, §4, §5, §6

Drechslera teres = system: Drechslera teres; parameters: key: NI, no inhibition; p (partial), at least 50% inhibited
Protocol: as §1, §2, §3, §4, §5, §6

[3] = system: Pestalotiopsis microspora NE-32; parameters: key: NI, no inhibition; p (partial), at least 50% inhibited
Protocol: as §1, §2, §3, §4, §5, §6

Phyllosticta maydis = system: Phyllosticta maydis; parameters: key: NI, no inhibition; p (partial), at least 50% inhibited
Protocol: as §1, §2, §3, §4, §5, §6

Tapesia yallundae = system: Tapesia yallundae; parameters: key: NI, no inhibition; p (partial), at least 50% inhibited; details: 2x assays
Protocol: as §1, §2, §3, §4, §5, §6

[4] = Table 3 (five day results), observed at 9 day
[5] = Table 2 (two day results), observed at 7 day
[6] = Table 3 (five day results), observed at 21 days

| Substance | lowest level of compound that results in no growth (Drechslera portulacae; [4]) | lowest level of compound that results in no growth (Drechslera portulacae; two day results) [µg/mL] | lowest level of compound that results in no growth (Geotrichim candidum; five day results) [µg/mL] | lowest level of compound that results in no growth (Geotrichim candidum; two day results) [µg/mL] | lowest level of compound that results in no growth (Monilinia sp.; five day results) [µg/mL] | lowest level of compound that results in no growth (Monilinia sp.; two day results) [µg/mL] | lowest level of compound that results in no growth [1, 5] [µg/mL] | lowest level of compound that results in no growth [2, 5] [µg/mL] | lowest level of compound that results in no growth [2, 6] [µg/mL] | lowest level of compound that results in no growth (Penicillium roqueforti; five day results) | lowest level of compound that results in no growth (Penicillium roqueforti; two day results) [µg/mL] | lowest level of compound that results in no growth (Rhizoctonia solani; five day results) | lowest level of compound that results in no growth (Rhizoctonia solani; two day results) | lowest level of compound that results in no growth (Septoria passerinii; two day results) [µg/mL] | lowest level of compound that results in no growth (Septoria tritici; two day results) [µg/mL] | lowest level of compound that results in no growth (Ustilago maydis; five day results) [µg/mL] | lowest level of compound that results in no growth (Ustilago maydis; two day results) [µg/mL] | lowest level of compound that results in no growth (Bipolaris sorokiniana; five day results) | lowest level of compound that results in no growth (Bipolaris sorokiniana; two day results) | lowest level of compound that results in no growth (Drechslera teres; five day results) | further results |
| --- | --- | --- | --- | --- | --- | --- | --- | --- | --- | --- | --- | --- | --- | --- | --- | --- | --- | --- | --- | --- | --- |
| pseudomycin A-FB | 0.25 µg/mL | 0.25 | 6.25 | 3.12 | 12.5 | 6.25 | 0.25 | 0.5 | 1 | 3.12 µg/mL | 1 | 50 µg/mL | 6.25 µg/mL | 0.06 | 0.25 | 1 | 1 | NI | NI | NI | lowest level of compound that results in no growth [1, 6]: 0.25 µg/mL; lowest level of compound that results in no growth (Septoria passerinii; five day results): 0.06 µg/mL; lowest level of compound that results in no growth (Septoria passerinii; five day results, listed as pseudomycin A (free base)): 0.0625 µg/mL; lowest level of compound that results in no growth (Septoria tritici; five day results): 0.25 µg/mL; lowest level of compound that results in no growth (Drechslera teres; two day results): NI; lowest level of compound that results in no growth ([3]; five day results): NI; lowest level of compound that results in no growth ([3]; two day results): p at 50; lowest level of compound that results in no growth (Phyllosticta maydis; five day results): NI; lowest level of compound that results in no growth (Phyllosticta maydis; two day results): p at 50; lowest level of compound that results in no growth (Tapesia yallundae; five day results): 25 µg/mL; lowest level of compound that results in no growth (Tapesia yallundae; two day results): 12.5 µg/mL |
| Pseudomycin B | 0.0625 µg/mL and 0.06 µg/mL | 0.06 | 3.12 | 1.56 | 6.25 | 3.13 | 0.06 | 0.5 | 1 | 6.25 µg/mL | 0.5 | 50 µg/mL | 6.25 µg/mL | 0.06 | 0.06 | 0.5 | 0.5 | NI | NI | NI | lowest level of compound that results in no growth ([1]; Table 3 (five day results), observed at 21 days, listed as B): 0.12 µg/mL; lowest level of compound that results in no growth ([1]; Table 3 (five day results), observed at 21 days, listed as pseudomycin B): 0.125 µg/mL; lowest level of compound that results in no growth (Septoria passerinii; five day results, listed as B): 0.0625 µg/mL and 0.06 µg/mL; lowest level of compound that results in no growth (Septoria tritici; five day results, listed as B): 0.06 µg/mL; lowest level of compound that results in no growth (Septoria tritici; five day results, listed as pseudomycin B): 0.0625 µg/mL; lowest level of compound that results in no growth (Drechslera teres; two day results): NI; lowest level of compound that results in no growth ([3]; five day results): p at 50; lowest level of compound that results in no growth ([3]; two day results): p at 50; lowest level of compound that results in no growth (Phyllosticta maydis; five day results): 50 µg/mL; lowest level of compound that results in no growth (Phyllosticta maydis; two day results): 50 µg/mL; lowest level of compound that results in no growth (Tapesia yallundae; five day results): NI; lowest level of compound that results in no growth (Tapesia yallundae; two day results): 25 µg/mL |
| Pseudomycin C′ | 0.5 µg/mL | 0.05 | 6.25 | 1.56 | 6.25 | 3.12 | 0.125 | 1.56 | 1.56 | p at 50 | 1.56 | p at 50 | p at 50 | 0.06 | 0.125 | 0.25 | 0.25 | NI | NI | NI | lowest level of compound that results in no growth [1, 6]: 0.25 µg/mL; lowest level of compound that results in no growth (Septoria passerinii; five day results): 0.0625 µg/mL and 0.06 µg/mL; lowest level of compound that results in no growth (Septoria tritici; five day results): 0.25 µg/mL; lowest level of compound that results in no growth (Drechslera teres; two day results): NI; lowest level of compound that results in no growth ([3]; five day results): NI; lowest level of compound that results in no growth ([3]; two day results): NI; lowest level of compound that results in no growth (Phyllosticta maydis; five day results): NI; lowest level of compound that results in no growth (Phyllosticta maydis; two day results): p at 50; lowest level of compound that results in no growth (Tapesia yallundae; five day results): NI; lowest level of compound that results in no growth (Tapesia yallundae; two day results): 6.25 µg/mL |
| Pseudomycin C | 0.0625 µg/mL and 0.06 µg/mL | 0.06 | 25 | 3.12 | 12.5 | 6.25 | 0.125 | 1.56 | 1.56 | 12.5 µg/mL | 1.56 | p at 50 | 25 µg/mL | 0.06 | 0.125 | 0.25 | 0.25 | NI | NI | NI | lowest level of compound that results in no growth [1, 6]: 0.25 µg/mL; lowest level of compound that results in no growth (Septoria passerinii; five day results): 0.0625 µg/mL and 0.06 µg/mL; lowest level of compound that results in no growth (Septoria tritici; five day results): 0.25 µg/mL; lowest level of compound that results in no growth (Drechslera teres; two day results): NI; lowest level of compound that results in no growth ([3]; five day results): NI; lowest level of compound that results in no growth ([3]; two day results): NI; lowest level of compound that results in no growth (Phyllosticta maydis; five day results): NI; lowest level of compound that results in no growth (Phyllosticta maydis; two day results): p at 50; lowest level of compound that results in no growth (Tapesia yallundae; five day results): NI; lowest level of compound that results in no growth (Tapesia yallundae; two day results): 25 µg/mL |
